Key:
[1] = test system: T1, FAS4-AD aggregates; assay: Fibril incubation with plasma, quantitative MS/MS of bound proteins; format: binding, human; set-up: key to Identification status of plasma protein bound: FAS4-AD: *: Identified, but not quantified; —: Not identified in any of the samples; conditions: for Relative composition of plasma proteins bound: FAS4-AD: 50:1 w/w plasma protein:fibril
T1 construct: aggregates of a mutated version of the FAS1-4 domain of TGFBIp
Method: (§1) Plasma and CSF solutions were centrifuged (40,000 g, 20 min) to remove any aggregates. The protein concentration was determined using 280 nm absorbance assuming 1 Abs = 1 mg/mL. […] Control samples (without fibril material) were prepared similarly. All samples were incubated at room temperature for one hour under gentle agitation. Fibrils and fibril-bound proteins were pelleted by centrifugation at 17,000 g for 30 minutes. The supernatant (175 μL) was removed and the aggregate was re-suspended in 175 μL PBS and pelleted again before further preparation for gel analysis and spin-filter assisted digest for quantitative MS/MS.
(§2) The fibril-protein pellets were transferred to spin-filters (0.22 μm), washed twice in PBS (100 μL) and once in 1 M NaCl (100 μL). The fibrils and fibril-bound proteins were dissolved by one-hour incubation in 100 μL 6 M guanidinium chloride followed by elution from the spin-filter. The eluted proteins were loaded onto a 3 kDa MWCO filter unit for filter-assisted unfolding, reduction, alkylation, and trypsin digestion. In brief, samples were washed twice in 8 M urea, once in 8 M urea with 50 mM DTT, once in 8 M urea with 50 mM iodoaceteamide, and twice in 8 M Urea. The filter units were dried by centrifugation (14,000 g in 30 minutes) after every addition. Trypsin digestion was carried out with 0.25 μg sequencing grade trypsin from Sigma Aldrich in 50 mM ammonium bicarbonate overnight at 37 °C. The tryptic peptides were collected by centrifugation, acidified with TFA (0.1%) and micro-purified using POROS R2 column material (Applied Biosystems) packed in P200 pipette tips (Sarstedt).
(§3) LC-MS/MS analyses were performed on an EASY-nLC II system (Thermo Fisher Scientific) connected to a TripleTOF 5600+ mass spectrometer (Sciex) equipped with a NanoSpray III source (Sciex) and operated under Analyst TF 1.6.0 control.
(§4) The micro-purified tryptic peptides were dissolved in 0.1% formic acid, injected and trapped on an in-house packed trap column (2 cm × 100 μm I.D) with RP ReproSil-Pur C18-AQ 3 μm resin (Dr. Maisch GmbH). Peptides were eluted from the trap column and separated on a 15 cm analytical column (75 μm i.d.) packed in-house in a pulled emitter with RP ReproSil-Pur C18-AQ 3 μm resin (Dr. Maisch GmbH). Elution from the analytical column was performed with a linear gradient from 5% to 35% phase B (90% acetonitrile with 0.1% formic acid) over 20 min for protein identification and 50 min for quantitative analysis, respectively.
(§5) All samples were analysed three times, yielding nine MS/MS experiments for each fibril for both plasma and CSF. For the area-based extracted ion chromatogram (XIC) quantification, the acquisition method was set up as an information-dependent acquisition (IDA) experiment collecting up to 25 MS/MS spectra in each 1.6 sec cycle using an exclusion window of 6 sec.
(§6) XIC quantification was based on the average ion intensity of the three most abundant peptides for each protein. Only proteins quantified in at least four out of nine MS/MS experiments per fibril were included in the quantification. The total ion scores were visualized after grouping the proteins according to function (Figure S11).
(§7) For each MS/MS experiment, the ion intensities of the individual proteins were normalized to the total ion intensity of that MS/MS experiment to achieve a relative protein composition. The contribution of each protein was averaged over all nine MS/MS experiments (Tables 1 and 2).

[2] = test system: T2, Ab1 fibrils; assay: as above; format: binding, human; conditions: 50:1 w/w plasma protein:fibril
T2 construct: Synthetic amyloid β peptide 1–40 was purchased from Caslo Aps (Lyngby, Denmark); purchased Caslo Aps (Lyngby, Denmark); host or cells: synthetic peptide
Method: (§8) Plasma and CSF solutions were centrifuged (40,000 g, 20 min) to remove any aggregates. The protein concentration was determined using 280 nm absorbance assuming 1 Abs = 1 mg/mL. […] Control samples (without fibril material) were prepared similarly. All samples were incubated at room temperature for one hour under gentle agitation. Fibrils and fibril-bound proteins were pelleted by centrifugation at 17,000 g for 30 minutes. The supernatant (175 μL) was removed and the aggregate was re-suspended in 175 μL PBS and pelleted again before further preparation for gel analysis and spin-filter assisted digest for quantitative MS/MS.
as §2, §3, §4, §5, §6, §7

[3] = test system: T3, Ab2 fibrils; assay: as above; format: binding, human; conditions: 50:1 w/w plasma protein:fibril
T3 construct: Two structurally distinct fibrils of the Aβ(1–40) peptide associated with AD
Method: as §1, §2, §3, §4, §5, §6, §7

[4] = molecular target: T4, C-36 fibrils (Homo sapiens, UniProt P01009); assay: as above; format: binding; conditions: 50:1 w/w plasma protein:fibril
T4 construct: the 36 residue C-terminal fragment of α1-antitrypsin (C-36)
Method: as §1, §2, §3, §4, §5, §6, §7

[5] = test system: fibril systems (Ab1, Ab2, glucagon, αSN and C-36); assay: Fibril incubation with plasma, quantitative MS/MS, span over the fibril systems; format: binding, human
Method: as §8
The fibril-protein pellets were transferred to spin-filters (0.22 μm), washed twice in PBS (100 μL) and once in 1 M NaCl (100 μL). The fibrils and fibril-bound proteins were dissolved by one-hour incubation in 100 μL 6 M guanidinium chloride followed by elution from the spin-filter. […]
as §4, with “Peptides were eluted from the trap column and separated on a 15 cm analytical column (75 μm i.d.) packed in-house in a pulled emitter with RP ReproSil-Pur C18-AQ 3 μm resin (Dr. Maisch GmbH).” left out
as §5, with “sec. […]” for “sec.”
XIC quantification was based on the average ion intensity of the three most abundant peptides for each protein. Only proteins quantified in at least four out of nine MS/MS experiments per fibril were included in the quantification. […]

[6] = molecular target: T5, glucagon fibrils (Homo sapiens, UniProt P01275); assay: Fibril incubation with plasma, quantitative MS/MS of bound proteins; format: binding; conditions: 50:1 w/w plasma protein:fibril
T5 construct: fibrils of the peptide hormone glucagon
Method: as §1, §2, §3, §4, §5, §6, §7

[7] = molecular target: T6, αSN fibrils (Homo sapiens, UniProt P37840); assay: as above; format: binding; conditions: 50:1 w/w plasma protein:fibril
Method: as §1, §2, §3, §4, §5, §6, §7

[8] = test system: T1, FAS4-AD aggregates; assay: Fibril incubation with CSF, quantitative MS/MS of bound proteins; format: binding, human; set-up: key to Identification status of CSF protein bound: FAS4-AD: *: Identified, but not quantified; —: Not identified in any of the samples; conditions: symbol cells
Method: as §1, §2, §3, §4, §5, §6, §7

[9] = test system: T2, Ab1 fibrils; assay: as above; format: binding, human; conditions: 4:1 w/w CSF protein:fibril
Method: as §1, §2, §3, §4, §5, §6, §7

[10] = molecular target: T5, glucagon fibrils; assay: as above; format: binding; conditions: 4:1 w/w CSF protein:fibril
Method: as §1, §2, §3, §4, §5, §6, §7

[11] = molecular target: T4, C-36 fibrils; assay: as above; format: binding; conditions: 4:1 w/w CSF protein:fibril
Method: as §1, §2, §3, §4, §5, §6, §7

[12] = test system: T3, Ab2 fibrils; assay: as above; format: binding, human; set-up: key to Identification status of CSF protein bound: Ab2: *: Identified, but not quantified; —: Not identified in any of the samples
Method: as §1, §2, §3, §4, §5, §6, §7

[13] = molecular target: T6, αSN fibrils; assay: as above; format: binding; set-up: key to Identification status of CSF protein bound: αSN: *: Identified, but not quantified; —: Not identified in any of the samples
Method: as §1, §2, §3, §4, §5, §6, §7

[14] = test system: T2, Ab1 fibrils; assay: Determination of the binding capacity (dye depletion from supernatant); set-up: species or system human; conditions: 2 nmol dye (20 µM) with 10 μg fibril material, one hour
Method: (§9) Control samples (without fibril material) were prepared similarly. Fibrils and fibril-bound ligand were pelleted by centrifugation (17,000 g, 30 min) and the supernatant (90 μL) was transferred to a 96 well half-area plate (Corning 3881).

[15] = test system: T3, Ab2 fibrils; assay: as above; set-up: species or system human; conditions: 2 nmol dye (20 µM) with 10 μg fibril material, one hour
Method: as §9

[16] = molecular target: T5, glucagon fibrils; assay: as above; conditions: 2 nmol dye (20 µM) with 10 μg fibril material, one hour
Method: as §9

[17] = molecular target: T6, αSN fibrils; assay: as above; conditions: 2 nmol dye (20 µM) with 10 μg fibril material, one hour
Method: as §9

[18] = molecular target: T4, C-36 fibrils; assay: as above; conditions: 2 nmol dye (20 µM) with 10 μg fibril material, one hour
Method: as §9

[19] = molecular target: fibrils of a short Aβ fragment; set-up: method as in PMID 23878726; conditions: read-out: dissociation constant; cited from earlier work
[20] = test system: T2, Ab1 fibrils; assay: Fibril titration with ANS (fluorescence); format: binding, human; conditions: 2.5 μg aggregate material, ANS 20 to 167 μM
Method: (§10) Fibril material (2.5 μg) was set up in 50 μL phosphate buffer in a 96 well half-area NBS plate (NUNC/Terma). Stepwise ANS titration was conducted from 20 to 167 μM with 100 sec mixing (300 rpm) before each measurement using a FLUOstar Omega plate reader (excitation at […], emission at 485 nm).

[21] = test system: T3, Ab2 fibrils; assay: Fibril titration with ANS (fluorescence); format: binding, human; conditions: 2.5 μg aggregate material, ANS 20 to 167 μM
Method: as §10

[22] = test system: T7, FAS4 AD aggregates; assay: Fibril titration with ANS (fluorescence); format: binding, human; conditions: 2.5 μg aggregate material, ANS 20 to 167 μM
T7 construct: a mutated version of the FAS1-4 domain of TGFBIp
Method: as §10

[23] = test system: chymotrypsinogen aggregates; assay: Fibril titration with ANS (fluorescence); format: binding; conditions: 2.5 μg aggregate material, ANS 20 to 167 μM
Method: as §10

[24] = molecular target: T5, glucagon fibrils; assay: Fibril titration with ANS (fluorescence); format: binding; conditions: 2.5 μg aggregate material, ANS 20 to 167 μM
Method: as §10

[25] = molecular target: T6, αSN fibrils; assay: Fibril titration with ANS (fluorescence); format: binding; conditions: 2.5 μg aggregate material, ANS 20 to 167 μM
Method: as §10

[26] = molecular target: T4, C-36 fibrils; assay: Fibril titration with ANS (fluorescence); format: binding; conditions: 2.5 μg aggregate material, ANS 20 to 167 μM
Method: as §10

T4 sequence (P01009 383-418 limits assumed): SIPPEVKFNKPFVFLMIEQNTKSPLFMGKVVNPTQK
T5 sequence (P01275 53-81 limits assumed): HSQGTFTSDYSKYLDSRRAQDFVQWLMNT

Molecule	Relative composition of plasma proteins bound: Ab1 [2]	Relative composition of plasma proteins bound: Ab2 [3]	Relative composition of plasma proteins bound: C-36 [4]	contribution to the fibril interactomes [5]	Relative composition of plasma proteins bound: Glucagon [6]	Relative composition of plasma proteins bound: αSN [7]	Identification status of CSF protein bound: FAS4-AD [8]	Relative composition of CSF proteins bound: Ab1 [9]	Relative composition of plasma proteins bound: FAS4-AD [1]	Relative composition of CSF proteins bound: Glucagon [10]	Relative composition of CSF proteins bound: C-36 [11]	Ligand bound (binding capacity) [14]	Ligand bound (binding capacity) [15]	Ligand bound (binding capacity) [16]	Ligand bound (binding capacity) [17]	Ligand bound (binding capacity) [18]	further results
Apolipoprotein B-100: plasma protein bound to fibrils	0.6 ± 0.1 % of total protein	0.5 ± 0.2 % of total protein	0.1 ± 0.0 % of total protein	0.4%	0.4 ± 0.0 % of total protein	0.2 ± 0.1 % of total protein											Identification status of plasma protein bound: FAS4-AD ([1]; symbol cells): *
Apolipoprotein A-I: plasma/CSF protein bound to fibrils	8.8 ± 0.9 % of total protein	14.9 ± 7.0 % of total protein	13.5 ± 0.5 % of total protein	8.8–14.9%	11.7 ± 1.4 % of total protein	14.7 ± 3.0 % of total protein	*	3.9 ± 0.4 % of total protein	15.7 ± 4.6 % of total protein	2.6 ± 0.8 % of total protein	5.0 ± 1.6 % of total protein						Relative composition of CSF proteins bound: Ab2 ([12]; 4:1 w/w CSF protein:fibril): 2.9 ± 0.6 % of total protein; Relative composition of CSF proteins bound: αSN ([13]; 4:1 w/w CSF protein:fibril): 2.7 ± 1.0 % of total protein
O=C(O)c1cc(/C=C/c2ccc(/C=C/c3ccc(O)c(C(=O)O)c3)c(F)c2)ccc1O [FSB, (E,E)-1-fluoro-2,5-bis-(3-hydroxycarbonyl-4-hydroxy)styrylbenzene]												45 nmol/mg fibril	54 nmol/mg fibril	128 nmol/mg fibril	123 nmol/mg fibril	197 nmol/mg fibril	
O=S(=O)(O)c1cc(S(=O)(=O)O)c2c(/N=N/c3ccccc3)c(O)ccc2c1 [Orange-G]												7 nmol/mg fibril	4 nmol/mg fibril	6 nmol/mg fibril	6 nmol/mg fibril	28 nmol/mg fibril	Kd [19]: ~50 µM
O=S(=O)(O)c1cccc2cccc(Nc3ccccc3)c12 [ANS, 8-anilinonaphthalene sulfonate]																	ANS fluorescence signal [20]: little or no signal at all; ANS fluorescence signal [21]: little or no signal at all; ANS fluorescence signal [22]: intermediate signal intensities; ANS fluorescence signal [23]: intermediate signal intensities; ANS fluorescence signal [24]: little or no signal at all; ANS fluorescence signal [25]: significant fluorescence enhancements; ANS fluorescence signal [26]: little or no signal at all
Apolipoprotein A-II: plasma/CSF protein bound to fibrils	1.1 ± 0.2 % of total protein	1.2 ± 0.2 % of total protein	1.9 ± 0.5 % of total protein		6.2 ± 0.6 % of total protein	0.9 ± 0.3 % of total protein	—	1.0 ± 0.3 % of total protein	1.8 ± 0.2 % of total protein	0.6 ± 0.2 % of total protein	0.9 ± 0.1 % of total protein						Identification status of CSF protein bound: Ab2 ([12]; symbol cells): *; Identification status of CSF protein bound: αSN ([13]; symbol cells): —

From publication PMC6405930, “Conservation of the Amyloid Interactome Across Diverse Fibrillar Structures” (Scientific Reports, 2019)
